Test results published in patent US20250360185A1, “COMPOSITIONS COMPRISING PEDF-DERIVED SHORT PEPTIDES FOR THE TREATMENT OF DRY EYE DISEASES” (BRIM Biotechnology, Inc., priority 2022, published 2025).

System: subjects with DED
Assay: Visual analog scale (VAS) ocular symptom ratings, clinical study with CAE model
Type: in vivo, human
Conditions: for VAS Burning/Stinging Change from Baseline, ANCOVA LS Mean Difference (SE), BRM421 OS − Placebo / VAS Burning/Stinging Change from Baseline, Two-Sample t-test Sample Mean Difference (SE), BRM421 OS − Placebo / VAS Eye Dryness Change from Baseline, ANCOVA LS Mean Difference (SE), BRM421 OS − Placebo / VAS Eye Dryness Change from Baseline, Two-Sample t-test Sample Mean Difference (SE), BRM421 OS − Placebo / VAS Photophobia Change from Baseline, ANCOVA LS Mean Difference (SE), BRM421 OS − Placebo / VAS Photophobia Change from Baseline, Two-Sample t-test Sample Mean Difference (SE), BRM421 OS − Placebo / VAS Burning/Stinging Change from Baseline, ANCOVA LS Mean (SE) / VAS Eye Dryness Change from Baseline, ANCOVA LS Mean (SE) / VAS Photophobia Change from Baseline, ANCOVA LS Mean (SE) / VAS Burning/Stinging Change from Baseline, Mean (SD) / VAS Eye Dryness Change from Baseline, Mean (SD) / VAS Photophobia Change from Baseline, Mean (SD): ITT; for VAS Burning/Stinging Change from Baseline, ANCOVA LS Mean (SE) / VAS Eye Dryness Change from Baseline, ANCOVA LS Mean (SE) / VAS Photophobia Change from Baseline, ANCOVA LS Mean (SE) / VAS Burning/Stinging Change from Baseline, Mean (SD) / VAS Eye Dryness Change from Baseline, Mean (SD) / VAS Photophobia Change from Baseline, Mean (SD): baseline last Pre-CAE measure; for VAS Burning/Stinging Change from Baseline, Mean (SD) / VAS Eye Dryness Change from Baseline, Mean (SD) / VAS Photophobia Change from Baseline, Mean (SD): 0-100 mm line
Protocol: A multi-center, randomized, double masked, placebo controlled clinical study was conducted to assess the safety and efficacy of BRM421 ophthalmic solution (OS) in subjects with DED using a controlled adverse environment (CAE®) model (Ora, Inc., Andover, MA, USA). CAE® uses controlled ocular surface stress to exacerbate the signs and symptoms of DED in a safe and controllable manner.
During the first visit (Day-7±1), the subjects were screened, evaluated before CAE®, exposed to CAE®, evaluated after CAE®, and started with the placebo run-in period (7±1 days). During the 7-day study run-in period (for the purpose of subject selection) prior to randomization, all subjects received Placebo OS bilaterally, three times daily (TID). During the second visit, subjects were evaluated before CAE®, exposed to CAE®, and evaluated after CAE®. These evaluations formed the baseline measurements. The subjects were then randomized into two groups to receive either BRM421 ophthalmic solution (OS) or Placebo OS (Vehicle) bilaterally three times daily (TID) for 14 days from Visit 2 to Visit 4.
During these visits, subjects were evaluated for symptom efficacy. Specifically, visual analog scale (VAS) was measured by asking subjects to rate each ocular symptom due to ocular dryness. Symptoms assessed include burning/stinging, itching, foreign body sensation, blurred vision, eye dryness, photophobia, and pain.

[1] = Visit 3, post-CAE evaluations as baselines

## SLGAEQRTESIIHRALYYDLISSPDIHGT (listed as Homo sapiens) [BRM421, PEDF-derived short peptide, 29mer, residues 93-121; tested as BRM421 ophthalmic solution (OS)]
FIG. 4D versus FIG. 4C
  VAS burning/stinging, subjects with cataract surgery compared to subjects without cataract surgery: more improvements
Visit 3 (Day 8)
  VAS Burning/Stinging Change from Baseline, ANCOVA LS Mean Difference (SE), BRM421 OS − Placebo: −6.8 (2.31) mm
  VAS Burning/Stinging Change from Baseline, Two-Sample t-test Sample Mean Difference (SE), BRM421 OS − Placebo: −5.9 (2.58) mm
  VAS Eye Dryness Change from Baseline, ANCOVA LS Mean Difference (SE), BRM421 OS − Placebo: −5.3 (2.33) mm
  VAS Eye Dryness Change from Baseline, Two-Sample t-test Sample Mean Difference (SE), BRM421 OS − Placebo: −4.7 (2.53) mm
  VAS Photophobia Change from Baseline, ANCOVA LS Mean Difference (SE), BRM421 OS − Placebo: −4.5 (2.19) mm
  VAS Photophobia Change from Baseline, Two-Sample t-test Sample Mean Difference (SE), BRM421 OS − Placebo: −4.2 (2.33) mm
  VAS Burning/Stinging Change from Baseline, ANCOVA LS Mean (SE): −9.8 (1.67) mm
  VAS Eye Dryness Change from Baseline, ANCOVA LS Mean (SE): −9.4 (1.69) mm
  VAS Photophobia Change from Baseline, ANCOVA LS Mean (SE): −6.2 (1.59) mm
  VAS Burning/Stinging Change from Baseline, Mean (SD): −8.8 (20.35) mm
  VAS Eye Dryness Change from Baseline, Mean (SD): −8.4 (19.22) mm
  VAS Photophobia Change from Baseline, Mean (SD): −5.6 (15.49) mm
Visit 3, ITT Population, FIG. 2A
  Mean changes from baseline in burning/stinging, eye dryness and photophobia compared to placebo: significant difference
[1]
  VAS burning/stinging relative to placebo (FIG. 2B): significant improvement
  VAS dryness relative to placebo (FIG. 2B): less significant improvement
Visit 3, pre-CAE evaluations as baselines
  VAS dryness and VAS burning/stinging relative to placebo (FIG. 2B): significant improvements
Visit 4 (Day 15)
  VAS Burning/Stinging Change from Baseline, ANCOVA LS Mean Difference (SE), BRM421 OS − Placebo: −3.8 (2.58) mm
  VAS Burning/Stinging Change from Baseline, Two-Sample t-test Sample Mean Difference (SE), BRM421 OS − Placebo: −2.9 (2.85) mm
  VAS Eye Dryness Change from Baseline, ANCOVA LS Mean Difference (SE), BRM421 OS − Placebo: 0.8 (2.66) mm
  VAS Eye Dryness Change from Baseline, Two-Sample t-test Sample Mean Difference (SE), BRM421 OS − Placebo: 1.2 (2.80) mm
  VAS Photophobia Change from Baseline, ANCOVA LS Mean Difference (SE), BRM421 OS − Placebo: −3.5 (2.26) mm
  VAS Photophobia Change from Baseline, Two-Sample t-test Sample Mean Difference (SE), BRM421 OS − Placebo: −3.2 (2.40) mm
  VAS Burning/Stinging Change from Baseline, ANCOVA LS Mean (SE): −10.0 (1.86) mm
  VAS Eye Dryness Change from Baseline, ANCOVA LS Mean (SE): −9.2 (1.92) mm
  VAS Photophobia Change from Baseline, ANCOVA LS Mean (SE): −7.8 (1.63) mm
  VAS Burning/Stinging Change from Baseline, Mean (SD): −9.0 (21.26) mm
  VAS Eye Dryness Change from Baseline, Mean (SD): −8.4 (21.48) mm
  VAS Photophobia Change from Baseline, Mean (SD): −7.3 (16.50) mm
Visits 3 and 4 relative to Visit 2 pre-CAE baseline
  VAS dryness, burning/stinging and photophobia versus baseline (FIG. 2A): showed improvements over the baseline
Inferred from significant difference to placebo at Visit 3
  Onset of effects: relatively fast onset
Patients with both DED and cataract, pre-CAE and post-CAE evaluations
  VAS burning/stinging (FIG. 4B): very significant improvements
Patients with only DED (without cataract), pre-CAE or post-CAE evaluations
  VAS burning/stinging (FIG. 4A): no significant improvements
Subjects with cataract regardless of the surgery status, pre-CAE and post-CAE evaluations
  VAS dryness (FIG. 4G, FIG. 4H): significant improvements
Subjects with cataract, pre-CAE and post-CAE evaluations
  VAS dryness compared to placebo (FIG. 4F): significant improvements
Subjects without cataract, pre-CAE and post-CAE evaluations
  VAS dryness compared to placebo (FIG. 4E): did not show significant improvements
